Data from patent publication US11401277B2, “Anti-bacterial heterocyclic compounds and their synthesis” (Bugworks Research, Inc., priority 2017, dated 2022).
Converted amounts (≈) assume the structure as drawn. “And” between values parts separate entries of the source, which are not always exact repeats. Equal values may be shown once. Read-outs that look alike come from different tables or passages of the source.

Tests used:
E. coli clinical strains = assay: Susceptibility (MIC50 and MIC90 determination) studies, clinical strains; assay type: cell-based; settings: CLSI
[1] = system: E. cloacae clinical strains; assay: as above; assay type: cell-based; settings: CLSI
[2] = system: K. pneumoniae [ATCC13883]; assay: Neutropenic Thigh Infection Model in Rat, K. pneumoniae; assay type: in vivo; settings: for MEAN ± SD (Log10 CFU/g thigh) / Mean Log 10 CFU/thigh reduction (wrt 2 h PI control: 5.04 Log10CFU/g thigh) / Log10 CFU/g thigh: i.v., 1 h infusion; for Log10 CFU/g thigh: individual animals, 10 hr post infection
E. coli topoisomerase IV = E. coli topoisomerase IV (Escherichia coli, UniProt P0AFI2+P20083); assay: biochemical
[3] = system: P. aurigenosa clinical strains; assay: Susceptibility (MIC50 and MIC90 determination) studies, clinical strains; assay type: cell-based; settings: CLSI
S. aureus ATCC 29213 = assay: MIC studies in LB Media; assay type: cell-based; settings: Staphylococcus aureus, ATCC29213, MIC = 90% inhibition of growth, read-out: Minimum Inhibitory Concentration in LB Media, S. au
Description: (§1) Bacterial cultures that were stored as glycerol stocks at −80° C. were sub cultured on LB agar plates to obtain isolated colonies. A single colony of each strain was cultured in LB broth. The cultures were incubated at 37° C., 200 rpm till they reach an optical density (OD at 600 nm) of 0.8 to 1. […] Test compounds were dissolved in dimethyl sulfoxide (DMSO) to a stock concentration of 4 mg/ml. A two-fold dilution series of this DMSO stock was prepared in a 96 well V bottom microtitre plate from rows A to H. A 3 μL volume of these dilutions were transferred to a 96-well flat bottom microtitre assay plate. Controls to monitor the effects of DMSO and media sterility were included. Each well was inoculated with 150 μL of the above diluted culture. The plates were incubated at 37° C. overnight in a humidified incubator. The following morning, the plates were read using a Spectrophotometer at 600 nm wavelength.

[4] = system: Citrobacter freundii ATCC 43864; assay: MIC studies in LB Media; assay type: cell-based; settings: ATCC43864, read-out: Minimum Inhibitory Concentration in LB Media, C. fr
Description: as §1

[5] = system: Proteus mirabilis ATCC 43071; assay: MIC studies in LB Media; assay type: cell-based; settings: ATCC43071, read-out: Minimum Inhibitory Concentration in LB Media, P. mi
Description: as §1

A. baumannii ATCC 19606 = assay: MIC studies in LB Media; assay type: cell-based; settings: Acinetobacter baumannii, ATCC19606, read-out: Minimum Inhibitory Concentration in LB Media, A. ba
Description: as §1

[6] = system: Morganella morganii ATCC 25830; assay: MIC studies in LB Media; assay type: cell-based; settings: ATCC25830, read-out: Minimum Inhibitory Concentration in LB Media, M. mo
Description: as §1

K. pneumoniae ATCC 13883 = assay: MIC studies in LB Media; assay type: cell-based; settings: Klebsiella pneumoniae, ATCC13883, read-out: Minimum Inhibitory Concentration in LB Media, K. pn
Description: as §1

[7] = system: Enterobacter cloacae ATCC 13047; assay: MIC studies in LB Media; assay type: cell-based; settings: ATCC13047, read-out: Minimum Inhibitory Concentration in LB Media, E. cl
Description: as §1

E. faecalis ATCC 29212 = assay: MIC studies in LB Media; assay type: cell-based; settings: Enterococcus faecalis, ATCC29212, read-out: Minimum Inhibitory Concentration in LB Media, E. fa
Description: as §1

E. coli ATCC 25922 = assay: MIC studies in LB Media; assay type: cell-based; settings: Escherichia coli, ATCC25922, read-out: Minimum Inhibitory Concentration in LB Media, E. co
Description: as §1

P. aurigenosa ATCC 27853 = assay: MIC studies in LB Media; assay type: cell-based; settings: Pseudomonas aeruginosa, ATCC27853, read-out: Minimum Inhibitory Concentration in LB Media, P. ae
Description: as §1

[8] = system: clinical strains of five Gram-negative bacterial species; assay: Antibacterial susceptibility studies, overall statement; assay type: cell-based; settings: range over 5 Gram-negative species
Excerpt: The standard drugs ciprofloxacin and meropenem were used as positive controls in the study.

[9] = system: P. aeruginosa [ATCC27853]; assay: Neutropenic Lung Infection Model in Rat; assay type: in vivo; settings: for MEAN ± SD (Log10 CFU/g Lung) / Mean Log 10 CFU/g lung reduction (wrt 4 h PI control: 6.52 Log10CFU/g lung) / Log10 CFU/g Lung: i.v., 1 h infusion; for Log10 CFU/g Lung: individual animals, 24 h post infection
Description: Animals were placed into an induction chamber and anaesthesia was induced by exposing the animals to 3-5% Isoflurane in an oxygen flow set at approximately (˜) 1 liter per minute (LPM). […] A gentle mixing of inoculum between two animals was followed for uniform distribution.
Meropenem was formulated in saline.
Entire Lung was aseptically isolated, weighed and placed into 1 mL of sterile CSDB broth, and homogenized (Omni Tip (220 V hand held)). Serial ten-fold dilutions of the lungs homogenates were prepared in sterile CSD broth and 0.05 mL of four dilutions for each tissue was plated onto CSDA agar plates. Bacterial colonies were enumerated following overnight incubation at 37° C. Bacterial densities were estimated as Log10 CFU/g lung. The Mean±SD Log10 CFU/g lung was estimated in each group.

[10] = Escherichia coli, E. coli clinical strains

Sequence of E. coli topoisomerase IV (P20083 whole entry): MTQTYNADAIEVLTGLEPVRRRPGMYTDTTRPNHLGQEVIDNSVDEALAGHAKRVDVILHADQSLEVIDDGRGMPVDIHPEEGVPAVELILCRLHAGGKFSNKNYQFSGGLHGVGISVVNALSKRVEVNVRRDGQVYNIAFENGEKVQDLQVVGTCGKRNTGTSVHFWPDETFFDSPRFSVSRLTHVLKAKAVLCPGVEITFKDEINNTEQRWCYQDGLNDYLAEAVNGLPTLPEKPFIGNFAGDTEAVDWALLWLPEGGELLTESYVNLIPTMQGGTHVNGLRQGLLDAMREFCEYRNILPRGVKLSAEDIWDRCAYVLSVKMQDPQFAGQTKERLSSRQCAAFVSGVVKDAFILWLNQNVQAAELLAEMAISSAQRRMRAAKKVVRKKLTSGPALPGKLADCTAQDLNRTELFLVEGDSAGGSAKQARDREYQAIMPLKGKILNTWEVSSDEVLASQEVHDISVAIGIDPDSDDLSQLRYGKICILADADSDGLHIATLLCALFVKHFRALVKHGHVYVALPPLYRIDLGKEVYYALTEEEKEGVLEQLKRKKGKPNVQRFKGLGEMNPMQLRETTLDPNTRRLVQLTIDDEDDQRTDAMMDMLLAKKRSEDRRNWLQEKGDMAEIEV
Sequence of E. coli topoisomerase IV (P0AFI2 whole entry): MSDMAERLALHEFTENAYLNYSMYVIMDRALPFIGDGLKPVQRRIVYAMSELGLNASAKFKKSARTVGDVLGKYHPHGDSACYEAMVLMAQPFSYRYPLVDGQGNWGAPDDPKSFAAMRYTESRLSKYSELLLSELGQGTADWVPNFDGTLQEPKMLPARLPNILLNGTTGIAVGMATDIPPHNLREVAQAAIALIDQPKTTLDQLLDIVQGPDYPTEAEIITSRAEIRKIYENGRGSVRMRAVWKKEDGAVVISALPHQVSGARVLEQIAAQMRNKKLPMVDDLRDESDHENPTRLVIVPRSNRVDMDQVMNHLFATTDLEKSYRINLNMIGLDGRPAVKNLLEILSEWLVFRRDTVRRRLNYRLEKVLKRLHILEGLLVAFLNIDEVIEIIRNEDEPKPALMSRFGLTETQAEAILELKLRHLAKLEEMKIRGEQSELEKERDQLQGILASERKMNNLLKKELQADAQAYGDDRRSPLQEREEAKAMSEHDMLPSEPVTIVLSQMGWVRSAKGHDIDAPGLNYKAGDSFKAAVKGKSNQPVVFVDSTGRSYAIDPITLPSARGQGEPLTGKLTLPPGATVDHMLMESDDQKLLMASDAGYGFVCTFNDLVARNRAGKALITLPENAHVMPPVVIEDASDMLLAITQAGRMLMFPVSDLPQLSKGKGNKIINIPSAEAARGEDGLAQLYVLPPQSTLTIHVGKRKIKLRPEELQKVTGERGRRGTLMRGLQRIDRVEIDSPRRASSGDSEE

Which Minimum (MIC) (E. coli clinical strains; E. coli clinical strains, MIC50/MIC90 in μg/ml) does the source give for `Cn1c(=O)ccc2ccc(F)c(OCCNC[C@H]3CN(c4cnc5c(n4)NC(=O)CO5)C(=O)O3)c21` [Compound 2, (S)-6-(5-(((2-((7-fluoro-1-methyl-2-oxo-1,2-dihydroquinolin-8-yl)oxy)ethyl)amino)methyl)-2-oxooxazolidin-3-yl)-2H-pyrazino[2,3-b][1,4]oxazin-3(4H)-one] here?
The Minimum (MIC) was 0.03 µg/mL.

And the MIC ATCC25922 (E. coli clinical strains; E. coli reference strain ATCC25922, MIC50/MIC90 in μg/ml)?
The MIC ATCC25922 was 0.03 µg/mL (≈ 0.0619 µM).

What about the MIC50 (E. coli clinical strains; [10]) of the same molecule?
Its MIC50 is 0.25 µg/mL (≈ 0.516 µM).

What about the MIC90 (E. coli clinical strains; [10]) of the same molecule?
The MIC90 was 0.25 µg/mL (≈ 0.516 µM).

And the Minimum (MIC) ([1]; MIC50/MIC90 in μg/ml)?
The Minimum (MIC) was 0.03 µg/mL.

And the MIC50 ([1]; Enterobacter cloacae)?
Its MIC50 is 0.125 µg/mL (≈ 0.258 µM).

What about the MIC90 ([1]; Enterobacter cloacae) of the same molecule?
The MIC90 was 0.25 µg/mL (≈ 0.516 µM).

What about the “MEAN ± SD (Log10 CFU/g thigh)” value ([2]; 3 mg/kg) of the same molecule?
The value was 3.91 ± 0.04 Log10 CFU/g thigh.

And the “Mean Log 10 CFU/thigh reduction (wrt 2 h PI control: 5.04 Log10CFU/g thigh)” value ([2]; 3 mg/kg)?
The value was 1.13 Log 10 CFU/thigh.

What about the “Log10 CFU/g thigh” value ([2]; 3 mg/kg) of the same molecule?
The value was 3.95 Log10 CFU/g thigh and 3.87 Log10 CFU/g thigh and 3.91 Log10 CFU/g thigh.

What about the “MEAN ± SD (Log10 CFU/g thigh)” value ([2]; 10 mg/kg) of the same molecule?
The value was 3.61 ± 0.31 Log10 CFU/g thigh.

What about the “Mean Log 10 CFU/thigh reduction (wrt 2 h PI control: 5.04 Log10CFU/g thigh)” value ([2]; 10 mg/kg) of the same molecule?
Its value is 1.43 Log 10 CFU/thigh.

And the “Log10 CFU/g thigh” value ([2]; 10 mg/kg)?
The value was 3.74 Log10 CFU/g thigh and 3.26 Log10 CFU/g thigh and 3.84 Log10 CFU/g thigh.

And the “efficacy with respect to 2 h Post Infection (PI) control (in words)” value ([2]; 3, 10 and 30 mg/kg, rat thigh K. pneumoniae)?
Its value is “significant dose dependent bactericidal efficacy”.

What about the IC50 (E. coli topoisomerase IV; gel based decatenation assay, read-out: E. coli Topo IV IC50) of the same molecule?
Its IC50 is 45 nM.

What about the IC50 (E. coli topoisomerase IV; unit inferred, read-out: IC50 E. coli Topo IV) of the same molecule?
The IC50 was at most 50 nM.

What about the MIC50 ([3]; Pae clinical strains) of the same molecule?
The MIC50 was 1 µg/mL (≈ 2.06 µM).

And the MIC90 ([3]; Pae clinical strains)?
The MIC90 was 1 µg/mL (≈ 2.06 µM).

What about the Minimum (MIC) ([3]; Pae clinical strains, MIC50/MIC90 in μg/ml) of the same molecule?
Its Minimum (MIC) is 0.031 µg/mL.

And the MIC ATCC27853 ([3]; Pae reference strain ATCC27853, MIC50/MIC90 in μg/ml)?
The MIC ATCC27853 was 0.5 µg/mL (≈ 1.03 µM).

What about the MIC (S. aureus ATCC 29213) of the same molecule?
Its MIC is at most 0.015 µg/mL.

What about the MIC [4] of the same molecule?
The MIC was at most 0.03 µg/mL.

What about the MIC [5] of the same molecule?
Its MIC is 0.125 µg/mL (≈ 0.258 µM).

What about the MIC (A. baumannii ATCC 19606) of the same molecule?
The MIC was 0.06 µg/mL (≈ 0.124 µM).

What about the MIC [6] of the same molecule?
The MIC was 0.125 µg/mL (≈ 0.258 µM).

And the MIC (K. pneumoniae ATCC 13883)?
The MIC was 0.06 µg/mL (≈ 0.124 µM).

And the MIC [7]?
Its MIC is 0.125 µg/mL (≈ 0.258 µM).

What about the MIC (E. faecalis ATCC 29212) of the same molecule?
The MIC was 0.06 µg/mL (≈ 0.124 µM).

And the MIC (E. coli ATCC 25922)?
The MIC was 0.03 µg/mL (≈ 0.0619 µM).

What about the MIC (P. aurigenosa ATCC 27853) of the same molecule?
Its MIC is 0.5 µg/mL (≈ 1.03 µM).

What about the MIC90 [8] of the same molecule?
Its MIC90 is 0.25 to 1 µg/mL (≈ 0.516 to 2.06 µM).

What about the “MEAN ± SD (Log10 CFU/g Lung)” value ([9]; 3 mg/kg) of the same molecule?
Its value is 8.09 ± 0.14 Log10 CFU/g Lung.

What about the “Mean Log 10 CFU/g lung reduction (wrt 4 h PI control: 6.52 Log10CFU/g lung)” value (shortened to “Mean Log 10 CFU/g lung reduction”) ([9]; 3 mg/kg) of the same molecule?
Its value is −1.57 Log 10 CFU/g lung.

What about the “Log10 CFU/g Lung” value ([9]; 3 mg/kg) of the same molecule?
The value was 7.99 Log10 CFU/g Lung and 8.02 Log10 CFU/g Lung and 8.26 Log10 CFU/g Lung.

And the “MEAN ± SD (Log10 CFU/g Lung)” value ([9]; 10 mg/kg)?
Its value is 6.93 ± 0.44 Log10 CFU/g Lung.

And the “Mean Log 10 CFU/g lung reduction” value ([9]; 10 mg/kg)?
Its value is −0.41 Log 10 CFU/g lung.

What about the “Log10 CFU/g Lung” value ([9]; 10 mg/kg) of the same molecule?
The value was 7.34 Log10 CFU/g Lung and 6.98 Log10 CFU/g Lung and 6.46 Log10 CFU/g Lung.

And the “efficacy with respect to early infection control (in words)” value ([9]; 30 mg/kg and 100 mg/kg doses)?
The value was “significant efficacy”.

And the “MEAN ± SD (Log10 CFU/g Lung)” value ([9]; 30 mg/kg)?
The value was 5.35 ± 0.25 Log10 CFU/g Lung.

What about the “Mean Log 10 CFU/g lung reduction” value ([9]; 30 mg/kg) of the same molecule?
The value was 1.17 Log 10 CFU/g lung.

And the “Log10 CFU/g Lung” value ([9]; 30 mg/kg)?
Its value is 5.30 Log10 CFU/g Lung and 5.63 Log10 CFU/g Lung and 5.14 Log10 CFU/g Lung.

And the “MEAN ± SD (Log10 CFU/g Lung)” value ([9]; 100 mg/kg)?
The value was 3.1 ± 0.12 Log10 CFU/g Lung.

What about the “Mean Log 10 CFU/g lung reduction” value ([9]; 100 mg/kg) of the same molecule?
The value was 3.42 Log 10 CFU/g lung.

And the “Log10 CFU/g Lung” value ([9]; 100 mg/kg)?
Its value is 3.12 Log10 CFU/g Lung and 3.20 Log10 CFU/g Lung and 2.98 Log10 CFU/g Lung.
